Measurements as given in US20250281476A1, “EFINACONAZOLE ORAL COMPOSITION” (priority 2020, published 2025).
≈ marks a conversion by molar mass, not a printed value. Like-named read-outs stand apart in the source and are kept apart here.

Legend:
[1] = Stability test of 10% solutions at room temperature and 65° C., purity by HPLC; type: physicochemical; conditions: solution (10%)
Description: The stability of the co-crystal of efinaconazole to temperature and a solution was evaluated and compared with that of efinaconazole by the following experimental method.
A co-crystalline form of efinaconazole was prepared.

[2] = in vivo; conditions: for AUC(0-t): AUCt; for concentration at 0.5 h: read-out: Blood voriconazole concentration, Time 0.5 hr; for concentration at 1 h: read-out: Blood voriconazole concentration, Time 1 hr; for concentration at 2 h: read-out: Blood voriconazole concentration, Time 2 hr; for concentration at 4 h: read-out: Blood voriconazole concentration, Time 4 hr; for concentration at 6 h: read-out: Blood voriconazole concentration, Time 6 hr; for concentration at 8 h: read-out: Blood voriconazole concentration, Time 8 hr; for concentration at 10 h: read-out: Blood voriconazole concentration, Time 10 hr
Description: 24 male beagle dogs were divided into 4 groups, 6 animals per group. Voriconazole as a control drug was once administered to the animals via an oral route under fasting conditions. Efinaconazole as a test drug was once administered to the animals via intravenous and oral routes under fasting conditions. Thereafter, the pharmacokinetic (PK) profiles of the drugs were determined to calculate PK parameters of the drugs and evaluate the pharmacokinetics of the drugs. Specific test conditions and methods are as follows.
The test substances were weighed with an electronic balance. Each of the weighed test substances was placed in a glass container and 0.5% methylcellulose in a 1% Tween 80 solution (distilled water) as an excipient was added thereto. The mixture was vortexed and sonicated to prepare a homogeneous test material.
For intravenous administration, the doses of efinaconazole (intravenous administration group G1) were calculated based on the body weights of the animals. To the test substance was added PEG400 as an excipient whose volume corresponded to 30% of the total volume of a final test material. The mixture was vortexed and sonicated for complete dissolution. To the solution was added ethanol in an amount corresponding to 20% of the total volume of the test material, followed by homogenization by sonication. Then, 0.9% saline was added in an amount corresponding to 50% of the total volume of the test material, followed by vortexing and sonication to in situ prepare the test material in a homogeneous state.
• Routes of administration: Intravenous (IV) and oral (PO) • Doses: G1 (Voriconazole)—6 mg/5 ml/kg (PO); G2 (Efinaconazole)—6 mg/5 ml/kg (PO); G3 (Efinaconazole-Polymer)—6 mg/5 ml/kg (PO); G1 (Efinaconazole)—0.5 mg/I ml/kg (IV) • Frequency of administration: Single dose (once daily)—(QD)
4 ml of blood was collected from each point and centrifuged. 500 μl of the plasma supernatant was dispensed in a 1.5 ml EP tube and the remaining plasma was dispensed into a set of 1.5 ml EP tubes. The samples were stored in a deep freezer at −80° C. After completion of the testing, the blood collection records, sample information certificates, dispensing records, clinical symptom observation records, medication/blood collection results, and test samples (plasma samples) were sent to a specialized analysis agency.
After storage in a freezer, the samples were analyzed by LC/MS/MS and their pharmacokinetic parameters were calculated in a noncompartmental manner using “Phoenix WinNonlin (Version 8.2 or higher, Certara L. P)” software.
AUCt, a bioavailability parameter, is the area under the plasma concentration-time curve from the time of administration medication to the last time point of blood collection with a measurable concentration and was calculated by the trapezoidal formula. Cmax is the highest plasma drug concentration read from the plasma drug concentration-time curve of each sample and Tmax is the time taken to reach the highest plasma drug concentration read from the plasma drug concentration-time curve of each sample. AUC∞ is the area under the plasma concentration-time curve from the time of administration to time infinity.

[3] = cited from earlier work
[4] = male, beagle, dog, in vivo, 0.5 mg/kg, Blood efinaconazole concentration, Time 12 hr
[5] = male, beagle, dog, in vivo, 6 mg/kg, Geometric Means
[6] = male, beagle, dog, in vivo, po, 6 mg/kg, Cmax
[7] = male, beagle, dog, in vivo, po, 6 mg/kg, Geometric Means
[8] = male, beagle, dog, in vivo, po, 6 mg/kg, Geometric Means, Cmax
[9] = male, dog, in vivo, 6 mg/kg, beagle dog, fasting, single 6 mg/kg P.O, group Mean (6 animals)
[10] = male, dog, in vivo, 6 mg/kg, beagle dog, fasting, single 6 mg/kg P.O, individual animals

C=C1CCN([C@H](C)[C@](O)(Cn2cncn2)c2ccc(F)cc2F)CC1 [Efinaconazole]
HPLC (%) After 1 week ([1]; 65° C.): 99.55%
Related substances (%) After 1 week ([1]; 65° C.): 0.45%
HPLC (%) After 2 weeks ([1]; 65° C.): 99.46%
Related substances (%) After 2 weeks ([1]; 65° C.): 0.54%
HPLC (%) After 4 weeks ([1]; 65° C.): 98.47%
Related substances (%) After 4 weeks ([1]; 65° C.): 1.53%
HPLC (%) After 1 week ([1]; room temp.): 99.73%
Related substances (%) After 1 week ([1]; room temp.): 0.27%
HPLC (%) After 2 weeks ([1]; room temp.): 99.61%
Related substances (%) After 2 weeks ([1]; room temp.): 0.39%
HPLC (%) After 4 weeks ([1]; room temp.): 99.60%
Related substances (%) After 4 weeks ([1]; room temp.): 0.40%
Blood efinaconazole concentration, Time 8 hr ([2]; dog, in vivo, 0.5 mg/kg): BLQ
Blood efinaconazole concentration, Time 10 hr ([2]; dog, in vivo, 0.5 mg/kg): BLQ
Blood efinaconazole concentration, Time 12 hr ([2]; dog, in vivo, 0.5 mg/kg): BLQ
Blood efinaconazole concentration, Time 24 hr ([2]; dog, in vivo, 0.5 mg/kg): BLQ
bioavailability compared with other antifungals when administered orally ([2]; dog, in vivo, po): higher than those of other antifungals, including voriconazole and itraconazole
concentration at 0.053 h ([2]; male, beagle, dog, in vivo, 0.5 mg/kg, Blood efinaconazole concentration, Time 0.053 hr): 262 ng/mL
concentration at 0.25 h ([2]; male, beagle, dog, in vivo, 0.5 mg/kg, Blood efinaconazole concentration, Time 0.25 hr): 168 ng/mL
concentration at 12 h [2, 4]: 1.36 ng/mL
concentration at 12 hr [2, 4]: 3.52 ng/mL
concentration at 24 h ([2]; male, beagle, dog, in vivo, 0.5 mg/kg, Blood efinaconazole concentration, Time 24 hr): 0 ng/mL
AUC(0-t) ([2]; male, beagle, dog, in vivo, 0.5 mg/kg, Geometric Means): 245 ng·h/mL
Cmax ([2]; male, beagle, dog, in vivo, 0.5 mg/kg, Geometric Means, Cmax): 318 ng/mL
bioavailability ([2]; male, beagle, dog, in vivo, 6 mg/kg): 51.4 ± 24.6%
concentration at 2 hr ([2]; male, beagle, dog, in vivo, 6 mg/kg, Blood efinaconazole concentration, Time 2 hr): 177 ng/mL
concentration at 4 hr ([2]; male, beagle, dog, in vivo, 6 mg/kg, Blood efinaconazole concentration, Time 4 hr): 64.9 ng/mL
concentration at 6 hr ([2]; male, beagle, dog, in vivo, 6 mg/kg, Blood efinaconazole concentration, Time 6 hr): 27.5 ng/mL
AUC(0-t) [2, 5]: 1440 ng·h/mL
Cmax ([2]; male, beagle, dog, in vivo, iv, 0.5 mg/kg, Cmax): 322 ± 58.6 ng/mL
Tmax ([2]; male, beagle, dog, in vivo, iv, 0.5 mg/kg, Tmax): 4.98 min
Cmax [2, 6]: 925 ± 236 ng/mL
AUC(0-t) [2, 7]: 1440 ng·h/mL
Cmax [2, 8]: 904 ng/mL
water solubility [3]: ~610 µg/mL (≈ 1750 µM)

C[C@@H](c1ncncc1F)[C@](O)(Cn1cncn1)c1ccc(F)cc1F [Voriconazole]
AUCt/AUC∞ ([2]; beagle dog, fasting, single 6 mg/kg P.O, group Mean (6 animals)): 51.125
AUC(0-t) [2, 5]: 53500 ng·h/mL
AUC(0-t) ([2]; male, beagle, dog, in vivo, po, 6 mg/kg): 53900 ng·h/mL
AUC(0-inf) ([2]; male, beagle, dog, in vivo, po, 6 mg/kg, AUC∞): 109000 ng·h/mL
Cmax [2, 6]: 3670 ng/mL
AUC(0-t) [2, 7]: 53500 ng·h/mL
Cmax [2, 8]: 3670 ng/mL
concentration at 0.053 h ([2]; male, dog, in vivo, 6 mg/kg, beagle dog, fasting, single 6 mg/kg P.O, group Mean (6 animals), read-out: Blood voriconazole concentration, Time 0.053 hr): 443 ng/mL
concentration at 0.25 h ([2]; male, dog, in vivo, 6 mg/kg, beagle dog, fasting, single 6 mg/kg P.O, group Mean (6 animals), read-out: Blood voriconazole concentration, Time 0.25 hr): 2720 ng/mL
concentration at 0.5 h [2, 9]: 3410 ng/mL
concentration at 1 h [2, 9]: 3440 ng/mL
concentration at 2 h [2, 9]: 3090 ng/mL
concentration at 4 h [2, 9]: 2950 ng/mL
concentration at 6 h [2, 9]: 2610 ng/mL
concentration at 8 h [2, 9]: 2460 ng/mL
concentration at 10 h [2, 9]: 2270 ng/mL
concentration at 12 h ([2]; male, dog, in vivo, 6 mg/kg, beagle dog, fasting, single 6 mg/kg P.O, group Mean (6 animals), read-out: Blood voriconazole concentration, Time 12 hr): 2180 ng/mL
concentration at 24 h ([2]; male, dog, in vivo, 6 mg/kg, beagle dog, fasting, single 6 mg/kg P.O, group Mean (6 animals), read-out: Blood voriconazole concentration, Time 24 hr): 1500 ng/mL
concentration at 0.5 h [2, 10]: 3280 ng/mL
concentration at 1 h [2, 10]: 3280 ng/mL
concentration at 2 h [2, 10]: 3000 ng/mL
concentration at 4 h [2, 10]: 2940 ng/mL
concentration at 6 h [2, 10]: 2660 ng/mL
concentration at 8 h [2, 10]: 2430 ng/mL
concentration at 10 h [2, 10]: 2250 ng/mL
concentration at 12 h ([2]; male, dog, in vivo, 6 mg/kg, beagle dog, fasting, single 6 mg/kg P.O, individual animals, read-out: Blood voriconazole concentration, Time 12 hr): 2160 ng/mL
concentration at 24 h ([2]; male, dog, in vivo, 6 mg/kg, beagle dog, fasting, single 6 mg/kg P.O, individual animals, read-out: Blood voriconazole concentration, Time 24 hr): 1470 ng/mL
Cmax ([2]; male, dog, in vivo, po, 6 mg/kg, beagle dog, fasting, single 6 mg/kg P.O, individual animals, read-out: Cmax): 3520 ng/mL
